Common to all, as to format: in vivo, Wistar rats
The nature of data set [1]: Plasma concentrations and pharmacokinetics after intravenous bolus of C3G (NCA and two-compartment model). Particulars: male, Wistar, rat, plasma, iv, mean ± SEM n=4. An excerpt: (§1) Twenty-two male Wistar rats (Rattus Norvegicus, Harlan Italy S.r.l.), of same age (15 weeks), 293–390 g of body weight, were used. The rats were randomly divided into 5 groups, according to the time that elapsed after intravenous administration of the test compound, and one control group. Each time point was represented by four biological replicates. All animals were allowed to acclimate to the animal facility of the University of Trieste for at least 2 week before studies were initiated. The experimental design was vetted and approved by the bioethical committee of the University of Trieste (internal code 140PAS14), according to the provisions of the European Community Council Directive 2010/63/EU[39]. The methods were carried out in accordance with the approved guidelines. The animals (n = 22) were maintained in cages in a room at 23 ± 2 °C, 50–60% humidity with a 12-hour light-dark cycle. The night before the experiment, food was withdrawn from the cages but water was given ad libitum. On the day of the experiment, the rats were anesthetized with intra-peritoneal administration of tiletamine/zolazepam (1:1, 25 mg/kg body weight) and xylazine (10 mg/kg body weight). During anaesthesia (10 min in all cases), the heart and ventilation rate were monitored. The rats were placed on their backs, with the ventral side up and with the legs spread separately on a thermo-isolated support. The penis was extruded by sliding the prepuce downwards. The dorsal penis vein was then seen along both sides of the penis and exactly 10 min after anaesthesia 0.2 mL PBS without (control group) or with (treated group) 668 nmol cyanidin 3-glucoside (C3G) in PBS was injected using a 24-G hypodermic needle. Then the injection site was pressed with a swab for a few seconds, and the glans was encouraged to retract to prevent further bleeding. One min before sacrificing the rats, sodium heparin (0.1 ml, 500 IU) was injected again into the dorsal penis vein, exposed in the same way. […] Blood draining and excision of the organs were carried out according to the literature. In detail, blood was collected from the neck of rats hold upside down, immediately after their decapitation, which happened at the time points sharp. Exsanguination took 5 seconds; laparotomy and excision of the liver and the kidneys took 5 more seconds. The post-decapitation procedures were standardised. Urine was collected through the urinary bladder with a syringe before decapitation. Kidneys, liver and brain were washed with mQ water, immediately frozen in liquid nitrogen and stored at −80 °C.
(§2) Immediately after sampling, 5 mL of blood were transferred into ice-cold (−20 °C), deoxygenated aqueous 95% methanol in a ratio 1:9 (v/v). The urine was weighted and transferred into ice-cold, deoxygenated aqueous 95% methanol at a ratio of 1:9 (w/v). Frozen kidneys, liver and brain were grounded under cryogenic conditions (−196 °C) to 5 μm particles in a CryoMill (Retsch, Germany), using a single 25 mm i. d. steel ball (30 seconds, 25/sec frequency). The pulverized tissue was rapidly transferred (without thawing) into ice-cold, deoxygenated aqueous 95% methanol at a ratio of 1:9 (w/v). Cinnamic acid-d5, as internal standard, was dissolved in the aqueous methanol at concentration of 0.1 mg/L for the monitoring of the extraction protocol in biofluids and tissues.
(§3) All samples were extracted with an orbital shaker for 10 min at room temperature. The methanol extracts were then centrifuged for 5 min at 3600 rpm at 4 °C, decanted under a stream of nitrogen in 50 mL dark glass vessels and stored at −80 °C. Clean-up of extracted samples in methanol was performed by solid phase extraction (SPE), as previously described. Briefly, 5 mL of extracted samples were evaporated on a rotary evaporator and reconstituted in 10 mL of acidified water. Anthocyanins were extracted by solid-phase adsorption onto a hydrophobic matrix (Sep-Pak C18, 0.35 g, Waters, Milford, MA). […]

Data set [2] is described as follows: Liver concentrations and tissue pharmacokinetics after intravenous C3G.
Description: as §1, §2, §3

A short description of data set [3]: Kidney concentrations and tissue pharmacokinetics after intravenous C3G.
Description: as §1, §2, §3

A short description of data set [4]: Brain concentrations and tissue pharmacokinetics after intravenous C3G.
Description: as §1, §2, §3

A short description of data set [5]: Urinary excretion after intravenous C3G.
Description: as §1, §2, §3

Setting [6] is: 0.25 min after i.v. 668 nmol C3G.

A word on the half-life: it is the time in which the quantity being followed falls by half. Higher therefore signals slow decline. `COc1cc(-c2[o+]c3cc(O)cc(O)c3cc2O[C@@H]2O[C@H](CO)[C@@H](O)[C@H](O)[C@H]2O)cc(O)c1O` [PT3G, Petunidin-3-O-β-glucoside] yielded a concentration at 0.25 min in data set [1] (setting [6]) of 2.2 ± 1.05 nM. In addition, the concentration at 2 min in data set [1] (2 min after i.v. 668 nmol C3G) worked out at 4.95 ± 3.16 nM. Also, the concentration at 5 min in data set [1] (5 min after i.v. 668 nmol C3G) was 1.71 ± 1.39 nM. Also, the “Mean concentration in liver” value is recorded as 1.23 ± 0.59 pmol/g in data set [2] (0.25 min after i.v. 668 nmol C3G, mean ± SEM n=4); 2.42 ± 0.08 pmol/g in data set [2] (2 min after i.v. 668 nmol C3G); 1.09 ± 0.52 pmol/g in data set [2] (5 min after i.v. 668 nmol C3G); 1.60 ± 0.44 pmol/g in data set [2] (15 min after i.v. 668 nmol C3G); 3.06 ± 0.19 pmol/g in data set [2] (20 min after i.v. 668 nmol C3G). Besides, the AUC0-t is 33.85 pmol·min/g in data set [2] (liver, i.v. 668 nmol C3G); 48.13 ^* pmol g^–1 min^–1 in data set [3] (kidneys, unit per footnote *); 32.42 pmol·min/g in data set [4] (brain, i.v. 668 nmol C3G). In addition, the “Mean concentration in kidneys” value is 2.04 ± 0.59 pmol/g in data set [3] (setting [6]); 2.82 ± 0.28 pmol/g in data set [3] (2 min after i.v. 668 nmol C3G); 2.40 ± 0.13 pmol/g in data set [3] (5 min after i.v. 668 nmol C3G); 2.29 ± 0.07 pmol/g in data set [3] (15 min after i.v. 668 nmol C3G); 2.53 ± 0.26 pmol/g in data set [3] (20 min after i.v. 668 nmol C3G). In addition, the “MTTK (Mean Transit time in kidneys)” value in data set [3] (kidneys) came out at 187.44 min. For the same compound, the half-life in data set [3] (male, Wistar, rat, kidney, iv, 668 nmol, kidneys) was found to be 2.25 h. The “Mean concentration in brain” value in data set [4] (2 min after i.v. 668 nmol C3G) is recorded as 1.15 ± 0.62 pmol/g; in data set [4] (5 min after i.v. 668 nmol C3G) it was 1.01 ± 0.46 pmol/g; in data set [4] (15 min after i.v. 668 nmol C3G), 2.45 ± 0.22 pmol/g; in data set [4] (20 min after i.v. 668 nmol C3G) it was 1.90 ± 0.60 pmol/g. The values for the Urine concentration in data set [5] (setting [6]) and in data set [5] (2 min after i.v. 668 nmol C3G) were 4.58 ± 2.84 pmol/g and 3.30 ± 1.59 pmol/g, respectively.

These data come from PMC4786809, “Determination of cyanidin 3-glucoside in rat brain, liver and kidneys by UPLC/MS-MS and its application to a short-term pharmacokinetic study” (Scientific Reports, 2016).
